# Target: T1, Cladosporium herbarum mannitol dehydrogenase (Cladosporium herbarum, UniProt P0C0Y5)
# T1 construct: the enzyme activity was determined with the traditionally purified protein; from tissue; host or cells: Cladosporium herbarum extract (ammonium sulfate precipitation, HIC, anion exchange)
# Experiment: Enzyme activity determination, absorption of NADPH at 340 nm
# Type: biochemical
# Method: The experiments reveal that the highly purified major allergen of Cladosporium herbarum is indeed a mannitol dehydrogenase which catalyzes the following metabolic reaction: Fructose+NADPH+H^+ ? mannitol+NADP^+. […] The method of the activity determination is described in example 3.
# To confirm the results according to the invention, the enzyme activity was determined with the traditionally purified protein. The absorption of NADPH was measured in a photometer at 340 nm.
# • 50 mM Tris-HCl, pH 7.5 • 0.25 mM NADPH or NADH • D-fructose or fructose-6-phosphate (0.1; 0.2; 0.4; 0.6; 0.8; 1.0; 1.2 M) • H2O to 1 ml • the reaction is started with 0.5 μl of MtDH Results: • Reaction with fructose and NADPH • No reaction with fructose-6-phosphate and NADH
# T1 sequence (P0C0Y5 whole entry): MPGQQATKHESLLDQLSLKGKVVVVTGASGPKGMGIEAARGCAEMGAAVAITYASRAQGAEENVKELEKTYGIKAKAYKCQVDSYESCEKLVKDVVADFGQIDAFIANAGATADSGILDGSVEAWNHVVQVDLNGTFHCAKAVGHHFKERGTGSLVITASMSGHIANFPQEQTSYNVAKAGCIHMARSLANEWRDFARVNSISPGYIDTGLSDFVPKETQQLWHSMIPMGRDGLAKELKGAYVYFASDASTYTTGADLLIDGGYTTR
SMILES,activity as cosubstrate or substrate of the mannitol dehydrogenase,effect on the reaction fructose + NADPH to mannitol + NADP+
NC(=O)C1=CN([C@@H]2O[C@H](COP(=O)(O)OP(=O)(O)OC[C@H]3O[C@@H](n4cnc5c(N)ncnc54)[C@H](O)[C@@H]3O)[C@@H](O)[C@H]2O)C=CC1 [NADH],not active as cosubstrate,
O=C(CO)[C@@H](O)[C@H](O)[C@H](O)COP(=O)(O)O [fructose-6-phosphate],not active as substrate,inhibitory effect

# Reference: patent publication US7247441B2, “Nucleic acid sequence and protein in addition to polypeptides coding for mannitol dehydrogenases or parts thereof and the production and use thereof in diagnosis and therapy” (Biomay Produktions- Und Handels-Aktienge Sellschaft, priority 2002, dated 2007)
